Measurements published in US20120202272A1, “LIGE-TYPE SYSTEMS FOR BIOCONVERSION OF LIGNIN-DERIVED COMPOUNDS” (priority 2010, published 2012).

Experiments:
[1] = system: Escherichia coli; details: stated as demonstrated; cited from earlier work
[2] = in vitro biochemical assay for beta-etherase activity on fluorescent substrate MUAV (4MU formation, clarified E. coli cell extracts)
From the text: The model substrate synthesis 150 for use in the biochemical screening for selective activity can be outsourced through a contract research organization (CRO). The enzyme discovery effort can initially be focused on identifying potential beta-etherase candidate genes identified through bioinformatic methods. […] The fluorescent substrate α-O-(β-methylumbelliferyl)acetovanillone (MUAV), for example, can be used in in vitro assays to identify beta-etherase function (Acme Biosciences, Mt. View, Calif.). The formation of 4 methylumbelliferone (4MU) upon hydrolysis of the aryl ether bond can be monitored by fluorescence, for example, at λex=365 nm and λem=450 nm (or 460 nm).
The enzyme screening 155 is done to identify novel etherases 160. […] Expression of the beta-etherase genes can be done in 5 ml or 25 ml samples of the recombinant E. coli strains in LB medium using induction with IPTG. Following induction, and cell harvest, cell pellets can be lysed using the BPER (Invitrogen) cell lysis system. […] The formation of 4 methylumbelliferone (4MU) upon hydrolysis of the aryl ether bond in MUAV can be monitored by fluorescence at λex=365 nm and λem=460 nm, and can provide quantitative measurement of beta-etherase function. Cell extracts of E. coli transformed with the S. paucimobilis ligE and ligF genes can be the assay positive controls. Test or unknown samples can include, for example, E. coli strains expressing putative beta-etherase genes from N. aromaticovorans.
This example describes a method for gene expression in E. coli, as well as beta-etherase biochemical assays. Expression of known and putative beta-etherase genes was performed using 5 ml cultures of the recombinant E. coli strains described herein in Luria Broth medium by induction of gene expression using isopropylthiogalactoside (IPTG) to a final concentration of 0.1 mM. Following induction, and cell harvest, the cells were disrupted using either sonication or the BPER (Invitrogen) cell lysis system.
In vitro reactions were performed in a total volume of 200 ul and contained: 25 mM TrisHCl pH 7.5; 0.5 mM dithiothreitol; 1 mM glutathione; 0.05 mM or 0.1 mM MUAV; 10 ul of clarified cell extract used to initiate the reactions. Following incubation for 2.5 hours at room temperature, a 50 ul sample of the reactions was terminated using 150 uL of 300 mM glycine/NaOH buffer pH 9. The formation of 4 methylumbelliferone (4MU) upon hydrolysis of the aryl ether bond was monitored by the increase in fluorescence at λex=360 nm and λem=450 nm using a Spectramax UV/visible/fluorescent spectrophotometer.
The total protein concentrations of the cell lysates were determined using the BCA reagent system for protein quantification (Pierce).
Induction might be also performed using IPTG concentrations in the range of 0.01-1 mM. Cell disruption might be also performed using toluene permeabilization, French pressure techniques, or using multiple freeze/thaw cycles in conjunction with lysozyme. Assay conditions might be varied to include TrisHCl at 10-150 mM concentrations and in the pH range of 6.5-8.5; 0-2 mM dithiothreitol; 0.05-2 mM glutathione; 0.01-5 mM MUAV substrate; 22-42° C. reaction temperatures. The biochemical assay might be performed as a fixed time point assay with reaction times ranging from 5 minutes-12 hours, or performed continuously without quenching with glycine/NaOH buffer to extract enzyme kinetic parameters.

[3] = MUAV substrate, concentration not given
[4] = reactions containing 0.1 mM MUAV substrate, E. coli cell extracts

In the case of O=Cc1ccc(O)c(O)c1O [2,3,4-trihydroxybenzaldehyde], the “antibacterial activity against Escherichia coli” value [1] is given as “antibacterial activity”.

In the case of O=Cc1cccc(O)c1O [2,3-dihydroxybenzaldehyde], the “antibacterial activity against Escherichia coli” value [1] is listed as “antibacterial activity”.

In the case of O=Cc1c(O)cc(O)cc1O [2,4,6-trihydroxybenzaldehyde], the “antibacterial activity against Escherichia coli” value [1] is listed as “antibacterial activity”.

In the case of O=Cc1ccc(O)cc1O [2,4-dihydroxybenzaldehyde], the “antibacterial activity against Escherichia coli” value [1] is given as “antibacterial activity”.

In the case of O=Cc1cc(O)ccc1O [2,5-dihydroxybenzaldehyde], the “antibacterial activity against Escherichia coli” value [1] is given as “antibacterial activity”.

In the case of COc1cccc(C=O)c1O [2-hydroxy-3-methoxybenzaldehyde], the “antibacterial activity against Escherichia coli” value [1] is listed as “antibacterial activity”.

For COc1ccc(O)c(C=O)c1 [2-hydroxy-5-methoxybenzaldehyde], the “antibacterial activity against Escherichia coli” value [1] is given as “antibacterial activity”.

For O=Cc1ccccc1O [2-hydroxybenzaldehyde], the “antibacterial activity against Escherichia coli” value [1] is listed as “antibacterial activity”.

In the case of COc1cc(O)cc(OC)c1C=O [4-hydroxy-2,6-dimethoxybenzaldehyde], the “antibacterial activity against Escherichia coli” value [1] is given as “antibacterial activity”.

B1: LigF2: N. aromaticivorans beta-etherase polypeptide, glutathione S-transferase-like protein, GenBank ABD27301.1 (protein)
chain: MALKYYHAEPLANSLKSMVPLKEKGLAYESIYVDLHKFEQHQPWFTAINPEGQVPVLDHDGTIITHTTVINEYLEDAFPDAQPADAPLRPRDPVGAARMRYWNKFIDEHVMNYVSMHGWHRMVGVIARNIASGDFEKLLESIPLPDQRKKWATARSGFSEADLANATAKIEYALDKVEKQLGETKWLAGDTYTLADINFYSHCGAMVERMFPEMEVARRAPRLCEWRDRVAARPAVAEALKSEDRTAPGLRVWSGEVR
For B1, the “efficiency relative to S. paucimobilis LigF protein” value ([2]; MUAV substrate) was “approximately 2 fold” and the “total activity (beta-etherase)” value [2, 3] was 1206 rfu/ug.

B2: LigF: S. paucimobilis LigF beta-etherase, positive control polypeptide (protein)
chain: MTLKLYSFGPGANSLKPLATLYEKGLEFEQVFVDPSKFEQHSDWFKKINPRGQVPALWHDGKVVTESTVICEYLEDVFPESGNSLRPADPFKRAEMRVWTKWVDEYFCWCVSTIGWAFGIKAIAQKMSDEEFEEHINKNVPIPEQQLKWRRARNGFPQEMLDEEFRKVGVSVARLEETLSKQDYLVDTGYSLADICNFAIANGLQRPGGFFGDYVNQEKTPGLCAWLDRINARPAIKEMFEKSKREDLLKRQNEKVA
With B2 the “total activity (beta-etherase)” value [2, 3] was 558 rfu/ug.

B3: ligE: S. paucimobilis ligE beta-etherase, positive control polypeptide (protein)
chain: MARNNTITLYDLQLESGCTISPYVWRTKYALKHKGFDIDIVPGGFTGILERTGGRSERVPVIVDDGEWVLDSWVIAEYLDEKYPDRPMLFEGPTQKNLMKFLDNWLWSTAVGPWFRCYILDYHDLSLPQDRDYVRWSREQWFLGGQRLEDVQAGREDRLPLVPPTLEPFRRILAETKWLGGDQPNFADYSALAVFLWTASVARTPPLTEDDPLRDWLDRGFDLFDGLGRHPGMNPLFGLKLREGDPEPFVRQTGPAGAGGQALNKGPQTTKMPPRVAEKAD
In the case of B3, the “total activity (beta-etherase)” value [2, 4] is reported as 7 rfu/ug.

B4: ligE1: N. aromaticivorans beta-etherase polypeptide, glutathione S-transferase-like protein, GenBank ABD26841.1 (protein)
chain: MAANNTITFYDLALSTGATISPFVWATKYALKHKGFDLDVVPGGFTGILERTGGKTERLPAIVDDGEFVLDSWGIVEYLDAKYPDRPVLIPHESVAATLKALDNWFWNAAVGPWMFCFCQDYRDLSLPQDHEYVTHSREKMLGRKLEEVQAGREERLPKISAALEPLRAALAQHQWLGGSSPNYADYRIMGGILFTASVCKTPVLANDDPLRDWIERCLDLYGGLGRHPGLFPLFGLEQREGDPDLFNRAAGQGGIYKRNTGPESTRAETQRITEGMKK
For B4, the “beta-etherase activity (in words)” value ([2]; MUAV substrate) was “beta-etherase activity”, the “efficiency relative to S. paucimobilis ligE beta-etherase enzyme” value ([2]; MUAV substrate) was “approximately 75 fold” and the “total activity (beta-etherase)” value [2, 4] was 529 rfu/ug.
